The record followed here is patent US20090325964A1, “Piperazine Metabotropic Glutamate Receptor 5 (MGLUR5) Negative Allosteric Modulators For Anxiety/Depression” (Wyeth, priority 2008, published 2009).

Each structure is given as a SMILES string.

In one assay the target is mGluR5 (Rattus norvegicus, UniProt P31424). In words: IC50 column under 'Biological Activity' (assay not identified in the shown text; not the binding Ki).
Chain of mGluR5 (P31424 21-1203): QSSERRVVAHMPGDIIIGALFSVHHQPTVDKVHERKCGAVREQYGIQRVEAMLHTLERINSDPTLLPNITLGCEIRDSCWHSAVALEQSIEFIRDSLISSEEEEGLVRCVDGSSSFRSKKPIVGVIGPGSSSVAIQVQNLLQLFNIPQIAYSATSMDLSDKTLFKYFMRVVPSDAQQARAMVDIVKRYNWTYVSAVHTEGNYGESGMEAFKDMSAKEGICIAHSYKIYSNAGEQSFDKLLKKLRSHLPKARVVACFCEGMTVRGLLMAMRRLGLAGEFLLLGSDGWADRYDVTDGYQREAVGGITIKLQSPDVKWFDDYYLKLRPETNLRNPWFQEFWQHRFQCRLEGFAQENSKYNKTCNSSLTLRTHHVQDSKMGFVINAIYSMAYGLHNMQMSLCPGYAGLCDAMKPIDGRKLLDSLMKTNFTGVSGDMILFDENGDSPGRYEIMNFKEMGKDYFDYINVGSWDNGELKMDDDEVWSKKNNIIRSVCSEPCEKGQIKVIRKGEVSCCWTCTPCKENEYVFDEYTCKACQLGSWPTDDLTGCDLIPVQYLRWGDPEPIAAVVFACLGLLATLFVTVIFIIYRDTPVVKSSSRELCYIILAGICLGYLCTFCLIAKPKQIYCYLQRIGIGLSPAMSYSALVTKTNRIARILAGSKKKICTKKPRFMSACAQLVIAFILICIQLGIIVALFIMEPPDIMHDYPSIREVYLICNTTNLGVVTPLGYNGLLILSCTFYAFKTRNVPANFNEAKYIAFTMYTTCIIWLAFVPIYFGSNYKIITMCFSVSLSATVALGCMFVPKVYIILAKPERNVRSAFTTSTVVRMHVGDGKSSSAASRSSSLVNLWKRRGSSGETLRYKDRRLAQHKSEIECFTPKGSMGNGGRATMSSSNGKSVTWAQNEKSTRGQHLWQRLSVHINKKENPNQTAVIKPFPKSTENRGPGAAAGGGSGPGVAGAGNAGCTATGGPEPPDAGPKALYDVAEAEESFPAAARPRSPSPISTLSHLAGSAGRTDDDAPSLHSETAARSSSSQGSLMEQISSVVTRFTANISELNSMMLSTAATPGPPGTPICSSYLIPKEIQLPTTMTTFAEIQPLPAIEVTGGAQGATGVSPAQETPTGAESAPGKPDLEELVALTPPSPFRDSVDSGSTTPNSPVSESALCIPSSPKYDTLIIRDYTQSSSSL
Settings: not given
With `COc1ccc(C(=O)N2CCN(c3ccc(C(F)(F)F)cn3)CC2)cc1C#Cc1ccccn1` [Compound 183, 1-[4-methoxy-3-(pyridin-2-ylethynyl)benzoyl]-4-[5-(trifluoromethyl)pyridin-2-yl]piperazine], the concentration for half-maximal inhibition (IC50) is 66 nM.
Still for that read-out and setting: to `COc1ccc(C(=O)N2CCN(c3ncccc3C(F)(F)F)CC2)cc1C#Cc1ccccn1` [Compound 184, 1-[4-methoxy-3-(pyridin-2-ylethynyl)benzoyl]-4-[3-(trifluoromethyl)pyridin-2-yl]piperazine] belongs 117 nM.
On the same count and under the same terms, to `COc1ccc(C(=O)N2CCN(c3ncc(Cl)cc3Cl)CC2)cc1C#Cc1ccccn1` [Compound 185, 1-(3,5-dichloropyridin-2-yl)-4-[4-methoxy-3-(pyridin-2-ylethynyl)benzoyl]piperazine] belongs 43 nM.
Still for that read-out and setting: to `COc1ccc(C(=O)N2CCN(c3ncccc3Cl)CC2)cc1C#Cc1ccccn1` [Compound 186, 1-(3-chloropyridin-2-yl)-4-[4-methoxy-3-(pyridin-2-ylethynyl)benzoyl]piperazine] belongs 37 nM; to `COc1ccc(C(=O)N2CCN(c3cccc(C(F)(F)F)c3)CC2)cc1C#Cc1ccccn1` [Compound 187, 1-[4-methoxy-3-(pyridin-2-ylethynyl)benzoyl]-4-[3-(trifluoromethyl)phenyl]piperazine], 834 nM; to `COc1ccc(C(=O)N2CCN(c3cccc(C)n3)CC2)cc1C#Cc1ccccn1` [Compound 198, 1-[4-methoxy-3-(pyridin-2-ylethynyl)benzoyl]-4-(6-methylpyridin-2-yl)piperazine], 34 nM.
As for `COc1ccc(C(=O)N2CCN(c3ncccn3)CC2)cc1C#Cc1ccccn1` [Compound 353, 2-{4-[4-methoxy-3-(pyridin-2-ylethynyl)benzoyl]piperazin-1-yl}pyrimidine], the IC50 amounted to 72 nM.

The next assay deals with T1, rat mGluR5 receptor (Rattus norvegicus, UniProt P31424).
T1 construct: expressed in transfected cells; host or cells: HEK-293
T1 sequence (P31424 21-1203): as above
Put plainly: [3H]-MPEP displacement binding assay, HEK-293 cell membranes expressing rat mGluR5. To be noted: [3H]-MPEP displacement, rat mGluR5; no Ki given; read-out: IC50 (printed in the Median Ki column instead of a Ki). The essentials: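 Membranes from HEK-293 cells expressing rat mGluR5 (12-25 μg protein), incubated 60 min at room temperature with 4 nM [3H]-MPEP in 50 mM Tris pH 7.5, then filtered. Nonspecific binding defined with 10 μM MPEP.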
For the compound `COc1ccc(C(=O)N2CCN(c3ncccc3Cl)CC2)cc1C#Cc1ccc(C(C)=O)cc1` [Compound 347, 1-{4-[(5-{[4-(3-chloropyridin-2-yl)piperazin-1-yl]carbonyl}-2-methoxyphenyl)ethynyl]phenyl}ethanone], the IC50 was above 10000 nM.
With `COc1ccc(C(=O)N2CCN(c3ncccc3Cl)CC2)cc1C#Cc1ccc(OC(F)(F)F)cc1` [Compound 348, 1-(3-chloropyridin-2-yl)-4-(4-methoxy-3-{[4-(trifluoromethoxy)phenyl]ethynyl}benzoyl)piperazine], the IC50 is above 10000 nM.
On the same count and under the same terms, the value for `COc1ccc(C(=O)N2CCN(c3ncccc3Cl)CC2)cc1C#Cc1ccc(C(F)(F)F)cc1` [Compound 349, 1-(3-chloropyridin-2-yl)-4-(4-methoxy-3-{[4-(trifluoromethyl)phenyl]ethynyl}benzoyl)piperazine] was above 10000 nM.
Still for that read-out and setting: the value for `COc1ccc(C(=O)N2CCN(c3ncccc3Cl)CC2)cc1C#Cc1ccc([N+](=O)[O-])cc1` [Compound 350, 1-(3-chloropyridin-2-yl)-4-{4-methoxy-3-[(4-nitrophenyl)ethynyl]benzoyl}piperazine] was above 10000 nM.
For `COc1ccc(C(=O)N2CCN(c3ncccn3)CC2)cc1C#Cc1ccc(OCc2ccccc2)cc1` [Compound 358, 2-[4-(3-{[4-(benzyloxy)phenyl]ethynyl}-4-methoxybenzoyl)piperazin-1-yl]pyrimidine], the IC50 was above 10000 nM.

The assay is the same for the next values; noted with them: [3H]-MPEP displacement, rat mGluR5; read-out: Median Ki.
On to `COc1ccc(C(=O)N2CCN(c3ccc(C(F)(F)F)cn3)CC2)cc1C#Cc1ccccn1` [Compound 183, 1-[4-methoxy-3-(pyridin-2-ylethynyl)benzoyl]-4-[5-(trifluoromethyl)pyridin-2-yl]piperazine], for which the Ki worked out at 41 nM.
Still for that read-out and setting: the value for `COc1ccc(C(=O)N2CCN(c3ncccc3C(F)(F)F)CC2)cc1C#Cc1ccccn1` [Compound 184, 1-[4-methoxy-3-(pyridin-2-ylethynyl)benzoyl]-4-[3-(trifluoromethyl)pyridin-2-yl]piperazine] was 78 nM; that for `COc1ccc(C(=O)N2CCN(c3ncc(Cl)cc3Cl)CC2)cc1C#Cc1ccccn1` [Compound 185, 1-(3,5-dichloropyridin-2-yl)-4-[4-methoxy-3-(pyridin-2-ylethynyl)benzoyl]piperazine] was 47 nM; that for `COc1ccc(C(=O)N2CCN(c3ncccc3Cl)CC2)cc1C#Cc1ccccn1` [Compound 186, 1-(3-chloropyridin-2-yl)-4-[4-methoxy-3-(pyridin-2-ylethynyl)benzoyl]piperazine] was 19 nM.
On the same count and under the same terms, the value for `COc1ccc(C(=O)N2CCN(c3cccc(C(F)(F)F)c3)CC2)cc1C#Cc1ccccn1` [Compound 187, 1-[4-methoxy-3-(pyridin-2-ylethynyl)benzoyl]-4-[3-(trifluoromethyl)phenyl]piperazine] was 5 nM.
On the same count and under the same terms, to `COc1ccc(C(=O)N2CCN(c3ncccc3Cl)CC2)cc1C#Cc1ccccc1F` [Compound 351, 1-(3-chloropyridin-2-yl)-4-{3-[(2-fluorophenyl)ethynyl]-4-methoxybenzoyl}piperazine] belongs 4300 nM; to `COc1ccc(C(=O)N2CCN(c3ncccc3Cl)CC2)cc1C#Cc1ccc(Cl)cc1` [Compound 352, 1-{3-[(4-chlorophenyl)ethynyl]-4-methoxybenzoyl}-4-(3-chloropyridin-2-yl)piperazine], 3190 nM; to `COc1ccc(C(=O)N2CCN(c3ncccn3)CC2)cc1C#Cc1cccnc1` [Compound 354, 2-{4-[4-methoxy-3-(pyridin-3-ylethynyl)benzoyl]piperazin-1-yl}pyrimidine], 4970 nM.
For `COc1ccc(C(=O)N2CCN(c3ncccn3)CC2)cc1C#Cc1ccncc1` [Compound 355, 2-{4-[4-methoxy-3-(pyridin-4-ylethynyl)benzoyl]piperazin-1-yl}pyrimidine], the Ki is 1570 nM.
On the same count and under the same terms, to `COc1ccc(C(=O)N2CCN(c3ncccn3)CC2)cc1C#Cc1cccc(OC(F)(F)F)c1` [Compound 356, 2-[4-(4-methoxy-3-{[3-(trifluoromethoxy)phenyl]ethynyl}benzoyl)piperazin-1-yl]pyrimidine] belongs 290 nM; to `COc1ccc(C(=O)N2CCN(c3ncccn3)CC2)cc1C#Cc1cccc([N+](=O)[O-])c1` [Compound 357, 2-(4-{4-methoxy-3-[(3-nitrophenyl)ethynyl]benzoyl}piperazin-1-yl)pyrimidine], 239 nM.
On the same count and under the same terms, the value for `COc1ccc(C(=O)N2CCN(c3ncccn3)CC2)cc1C#Cc1ccccc1F` [Compound 359, 2-(4-{3-[(2-fluorophenyl)ethynyl]-4-methoxybenzoyl}piperazin-1-yl)pyrimidine] was 287 nM; that for `COc1ccc(C(=O)N2CCN(c3ncccn3)CC2)cc1C#Cc1ccccc1Cl` [Compound 360, 2-(4-{3-[(2-chlorophenyl)ethynyl]-4-methoxybenzoyl}piperazin-1-yl)pyrimidine] was 4500 nM; that for `COc1ccc(C(=O)N2CCN(c3ncccn3)CC2)cc1C#Cc1ccc(Cl)cc1` [Compound 363, 2-(4-{3-[(4-chlorophenyl)ethynyl]-4-methoxybenzoyl}piperazin-1-yl)pyrimidine] was 891 nM.
Still for that read-out and setting: to `COc1ccc(C(=O)N2CCN(c3ncccn3)CC2)cc1C#Cc1cccc(OC(F)F)c1` [Compound 364, 2-[4-(3-{[3-(difluoromethoxy)phenyl]ethynyl}-4-methoxybenzoyl)piperazin-1-yl] pyrimidine] belongs 230 nM.

Staying with this assay, now noted: [3H]-MPEP displacement, rat mGluR5 membranes; read-out: Median Ki.
For `N#Cc1nccnc1N1CCN(C(=O)c2ccc(C(F)(F)F)c(C#Cc3ccccn3)c2)CC1` [Compound 366, 3-(4-{[3-(pyridin-2-ylethynyl)-4-(trifluoromethyl)phenyl]carbonyl}piperazin-1-yl) pyrazine-2-carbonitrile], the Ki amounted to 459 nM.
Same read-out and setting: to `O=C(c1ccc(C(F)(F)F)c(C#Cc2ccccn2)c1)N1CCN(c2ncc(Cl)cc2Cl)CC1` [Compound 368, 1-(3,5-dichloropyridin-2-yl)-4-{[3-(pyridin-2-ylethynyl)-4-(trifluoromethyl)phenyl]carbonyl}piperazine] belongs 2920 nM; to `O=C(c1ccc(C(F)(F)F)c(C#Cc2ccccn2)c1)N1CCN(c2ncccn2)CC1` [Compound 370, 2-(4-{[3-(pyridin-2-ylethynyl)-4-(trifluoromethyl)phenyl]carbonyl}piperazin-1-yl)pyrimidine], 164 nM.
As for `O=C(c1ccc(C(F)(F)F)c(C#Cc2ccccn2)c1)N1CCN(c2ncccc2Cl)CC1` [Compound 371, 1-(3-chloropyridin-2-yl)-4-{[3-(pyridin-2-ylethynyl)-4-(trifluoromethyl)phenyl]carbonyl}piperazine], the Ki amounted to 1000 nM.
The same measure, in the same setting: the value for `Cc1ccc(N2CCN(C(=O)c3ccc(C(F)(F)F)c(C#Cc4ccccn4)c3)CC2)nc1` [Compound 372, 1-(5-methylpyridin-2-yl)-4-{[3-(pyridin-2-ylethynyl)-4-(trifluoromethyl)phenyl]carbonyl}piperazine] was 292 nM.
Still for that read-out and setting: the value for `O=C(c1ccc(C(F)(F)F)c(C#Cc2ccccn2)c1)N1CCN(Cc2cccc(F)c2)CC1` [Compound 376, 1-(3-fluorobenzyl)-4-{[3-(pyridin-2-ylethynyl)-4-(trifluoromethyl)phenyl]carbonyl}piperazine] was 811 nM; that for `O=C(c1ccc(C(F)(F)F)c(C#Cc2ccccn2)c1)N1CCN(c2ccc(C(F)(F)F)cn2)CC1` [Compound 379, 1-{[3-(pyridin-2-ylethynyl)-4-(trifluoromethyl)phenyl]carbonyl}-4-[5-(trifluoromethyl)pyridin-2-yl]piperazine] was 3130 nM.
The same measure, in the same setting: the value for `Cc1cccc(N2CCN(C(=O)c3ccc(C(F)(F)F)c(C#Cc4ccccn4)c3)CC2)n1` [Compound 380, 1-(6-methylpyridin-2-yl)-4-{[3-(pyridin-2-ylethynyl)-4-(trifluoromethyl)phenyl]carbonyl}piperazine] was 352 nM.
Take `O=C(c1ccc(C(F)(F)F)c(C#Cc2ccccn2)c1)N1CCN(c2cnccn2)CC1` [Compound 381, 2-(4-{[3-(pyridin-2-ylethynyl)-4-(trifluoromethyl)phenyl]carbonyl}piperazin-1-yl)pyrazine]: the Ki turned out to be 162 nM.
Still for that read-out and setting: the value for `O=C(c1ccc(Cl)c(C#Cc2ccccn2)c1)N1CCN(c2cccc(C(F)(F)F)c2)CC1` [Compound 392, 1-[4-chloro-3-(pyridin-2-ylethynyl)benzoyl]-4-[3-(trifluoromethyl)phenyl]piperazine] was 120 nM.

The assay is the same for the next values; noted with them: bound printed in place of a Ki; read-out: IC50 (printed in the Median Ki column).
As to `COc1nc(N2CCN(C(=O)c3ccc(C(F)(F)F)c(C#Cc4ccccn4)c3)CC2)ncc1Br` [Compound 365, 5-bromo-4-methoxy-2-(4-{[3-(pyridin-2-ylethynyl)-4-(trifluoromethyl)phenyl]carbonyl}piperazin-1-yl)pyrimidine], the IC50 was above 10000 nM.
Same read-out and setting: to `O=C(c1ccc(C(F)(F)F)c(C#Cc2ccccn2)c1)N1CCN(c2nc3ccccc3s2)CC1` [Compound 377, 2-(4-{[3-(pyridin-2-ylethynyl)-4-(trifluoromethyl)phenyl]carbonyl}piperazin-1-yl)-1,3-benzothiazole] belongs above 10000 nM.
